Test results from the NIST ThermoML archive (doi:10.1021/je5007407).
Where “and” joins values, the source holds several entries; their conditions need not be identical. Equal entries are not always repeated. Numbers after ± are expanded uncertainties.

Test: xn = mol fraction of the nth substance listed
Conditions: Gas, Frequency=2 MHz, Pulse-echo method

CCC [propane] + O=C=O
speed of sound (298.18 K, 100010 kPa, x2 = 0.9376): 1076.7 ± 1 m/s
speed of sound (298.18 K, 125020 kPa, x2 = 0.9376): 1162.3 ± 1 m/s
speed of sound (298.18 K, 149960 kPa, x2 = 0.9376): 1236.7 ± 1.1 m/s
speed of sound (298.18 K, 175000 kPa, x2 = 0.9376): 1302.7 ± 1.1 m/s
speed of sound (298.18 K, 200100 kPa, x2 = 0.9376): 1364.5 ± 1.2 m/s
speed of sound (323.09 K, 24930 kPa, x2 = 0.9683): 534.6 ± 1 m/s
speed of sound (323.09 K, 24940 kPa, x2 = 0.9683): 534.8 ± 1 m/s
speed of sound (323.09 K, 50140 kPa, x2 = 0.9683): 752.6 ± 1 m/s
speed of sound (323.09 K, 75000 kPa, x2 = 0.9683): 890.2 ± 0.9 m/s
speed of sound (323.09 K, 75070 kPa, x2 = 0.9683): 897.6 ± 0.9 m/s
speed of sound (323.09 K, 100590 kPa, x2 = 0.9683): 1000.1 ± 0.9 m/s
speed of sound (323.09 K, 125560 kPa, x2 = 0.9683): 1088.7 ± 1 m/s
speed of sound (323.09 K, 149970 kPa, x2 = 0.9683): 1164.3 ± 1 m/s
speed of sound (323.09 K, 175330 kPa, x2 = 0.9683): 1234.8 ± 1.1 m/s
speed of sound (323.09 K, 200000 kPa, x2 = 0.9683): 1296.5 ± 1.1 m/s
speed of sound (323.1 K, 30220 kPa, x2 = 0.9907): 590.1 ± 1 m/s
speed of sound (323.1 K, 30230 kPa, x2 = 0.9907): 589.8 ± 1 m/s
speed of sound (323.1 K, 49980 kPa, x2 = 0.9907): 747 ± 0.9 m/s
speed of sound (323.1 K, 75170 kPa, x2 = 0.9907): 886.1 ± 0.9 m/s
speed of sound (323.1 K, 100210 kPa, x2 = 0.9907): 992.6 ± 0.9 m/s
speed of sound (323.1 K, 124810 kPa, x2 = 0.9907): 1080.5 ± 1 m/s
speed of sound (323.1 K, 149980 kPa, x2 = 0.9907): 1157.2 ± 1 m/s
speed of sound (323.1 K, 174620 kPa, x2 = 0.9907): 1224.1 ± 1.1 m/s
speed of sound (323.1 K, 200340 kPa, x2 = 0.9907): 1288.4 ± 1.1 m/s
speed of sound (323.13 K, 50000 kPa, x2 = 0.9981): 745.6 ± 0.9 m/s
speed of sound (323.13 K, 50020 kPa, x2 = 0.9981): 745.8 ± 0.9 m/s
speed of sound (323.13 K, 75120 kPa, x2 = 0.9981): 883.4 ± 0.9 m/s
speed of sound (323.13 K, 100030 kPa, x2 = 0.9981): 988.9 ± 0.9 m/s
speed of sound (323.13 K, 124980 kPa, x2 = 0.9981): 1076.8 ± 1 m/s
speed of sound (323.13 K, 150000 kPa, x2 = 0.9981): 1153.2 ± 1 m/s
speed of sound (323.13 K, 175020 kPa, x2 = 0.9981): 1220.9 ± 1.1 m/s
speed of sound (323.13 K, 200000 kPa, x2 = 0.9981): 1282.1 ± 1.1 m/s
speed of sound (323.19 K, 15120 kPa, x2 = 0.9376): 381.2 ± 1.5 m/s
speed of sound (323.19 K, 15160 kPa, x2 = 0.9376): 381.4 ± 1.5 m/s
speed of sound (323.19 K, 25000 kPa, x2 = 0.9376): 541.2 ± 1.1 m/s
speed of sound (323.19 K, 50090 kPa, x2 = 0.9376): 758.5 ± 1 m/s
speed of sound (323.19 K, 75070 kPa, x2 = 0.9376): 897.6 ± 0.9 m/s
speed of sound (323.19 K, 100040 kPa, x2 = 0.9376): 1005.2 ± 1 m/s
speed of sound (323.19 K, 125050 kPa, x2 = 0.9376): 1095.7 ± 1 m/s
speed of sound (323.19 K, 150020 kPa, x2 = 0.9376): 1173.9 ± 1 m/s
speed of sound (323.19 K, 175000 kPa, x2 = 0.9376): 1243.4 ± 1.1 m/s
speed of sound (323.19 K, 200420 kPa, x2 = 0.9376): 1307.5 ± 1.1 m/s
speed of sound (348.09 K, 30390 kPa, x2 = 0.9683): 504.8 ± 1 m/s
speed of sound (348.09 K, 30400 kPa, x2 = 0.9683): 504.8 ± 1 m/s
speed of sound (348.09 K, 49950 kPa, x2 = 0.9981): 667.1 ± 0.8 m/s and 667.2 ± 0.8 m/s
speed of sound (348.09 K, 50030 kPa, x2 = 0.9683): 675.2 ± 0.9 m/s
speed of sound (348.09 K, 50360 kPa, x2 = 0.9907): 672.7 ± 0.8 m/s
speed of sound (348.09 K, 50370 kPa, x2 = 0.9907): 672.7 ± 0.8 m/s
speed of sound (348.09 K, 75020 kPa, x2 = 0.9981): 813.6 ± 0.9 m/s
speed of sound (348.09 K, 75080 kPa, x2 = 0.9907): 816.9 ± 0.9 m/s
speed of sound (348.09 K, 75220 kPa, x2 = 0.9683): 823 ± 0.9 m/s
speed of sound (348.09 K, 99980 kPa, x2 = 0.9981): 924.6 ± 0.9 m/s
speed of sound (348.09 K, 100580 kPa, x2 = 0.9907): 931.1 ± 0.9 m/s
speed of sound (348.09 K, 100600 kPa, x2 = 0.9683): 937.3 ± 0.9 m/s
speed of sound (348.09 K, 124980 kPa, x2 = 0.9981): 1016.6 ± 0.9 m/s
speed of sound (348.09 K, 125530 kPa, x2 = 0.9683): 1029 ± 0.9 m/s
speed of sound (348.09 K, 125700 kPa, x2 = 0.9907): 1023.2 ± 0.9 m/s
speed of sound (348.09 K, 149990 kPa, x2 = 0.9981): 1095.6 ± 1 m/s
speed of sound (348.09 K, 150440 kPa, x2 = 0.9683): 1109.4 ± 1 m/s
speed of sound (348.09 K, 150600 kPa, x2 = 0.9907): 1101.4 ± 1 m/s
speed of sound (348.09 K, 174720 kPa, x2 = 0.9683): 1178.6 ± 1 m/s
speed of sound (348.09 K, 175000 kPa, x2 = 0.9981): 1165.6 ± 1 m/s
speed of sound (348.09 K, 175290 kPa, x2 = 0.9907): 1171.4 ± 1 m/s
speed of sound (348.09 K, 200000 kPa, x2 = 0.9981): 1228.6 ± 1.1 m/s
speed of sound (348.09 K, 200040 kPa, x2 = 0.9683): 1243.8 ± 1.1 m/s
speed of sound (348.09 K, 200720 kPa, x2 = 0.9907): 1236.7 ± 1.1 m/s
speed of sound (348.18 K, 25040 kPa, x2 = 0.9376): 446.6 ± 1 m/s
speed of sound (348.18 K, 25050 kPa, x2 = 0.9376): 446.8 ± 1 m/s
speed of sound (348.18 K, 50050 kPa, x2 = 0.9376): 682.3 ± 1 m/s
speed of sound (348.18 K, 75100 kPa, x2 = 0.9376): 830.6 ± 0.9 m/s
speed of sound (348.18 K, 100100 kPa, x2 = 0.9376): 943.7 ± 0.9 m/s
speed of sound (348.18 K, 125020 kPa, x2 = 0.9376): 1037.1 ± 1 m/s
speed of sound (348.18 K, 149940 kPa, x2 = 0.9376): 1117.7 ± 1 m/s
speed of sound (348.18 K, 174970 kPa, x2 = 0.9376): 1189.8 ± 1 m/s
speed of sound (348.18 K, 200000 kPa, x2 = 0.9376): 1254.3 ± 1.1 m/s
speed of sound (373.1 K, 74950 kPa, x2 = 0.9981): 754.4 ± 0.8 m/s
speed of sound (373.1 K, 74970 kPa, x2 = 0.9981): 754.7 ± 0.8 m/s
speed of sound (373.1 K, 100020 kPa, x2 = 0.9981): 869.7 ± 0.9 m/s
speed of sound (373.1 K, 125030 kPa, x2 = 0.9981): 963.9 ± 0.9 m/s
speed of sound (373.1 K, 150000 kPa, x2 = 0.9981): 1044.4 ± 0.9 m/s
speed of sound (373.1 K, 175000 kPa, x2 = 0.9981): 1115.5 ± 1 m/s
speed of sound (373.1 K, 200000 kPa, x2 = 0.9981): 1179.3 ± 1 m/s
speed of sound (373.12 K, 25050 kPa, x2 = 0.9376): 384.7 ± 1 m/s
speed of sound (373.12 K, 25060 kPa, x2 = 0.9376): 385 ± 1 m/s
speed of sound (373.12 K, 35140 kPa, x2 = 0.9683): 488.3 ± 1 m/s
speed of sound (373.12 K, 35170 kPa, x2 = 0.9683): 488.8 ± 1 m/s
speed of sound (373.12 K, 49890 kPa, x2 = 0.9376): 618.8 ± 1 m/s
speed of sound (373.12 K, 49950 kPa, x2 = 0.9683): 611.6 ± 0.9 m/s
speed of sound (373.12 K, 75070 kPa, x2 = 0.9683): 764.5 ± 0.9 m/s
speed of sound (373.12 K, 75090 kPa, x2 = 0.9376): 772.6 ± 0.9 m/s
speed of sound (373.12 K, 100000 kPa, x2 = 0.9376): 889.4 ± 0.9 m/s
speed of sound (373.12 K, 100300 kPa, x2 = 0.9683): 881.3 ± 0.9 m/s
speed of sound (373.12 K, 124970 kPa, x2 = 0.9376): 985.6 ± 0.9 m/s
speed of sound (373.12 K, 125160 kPa, x2 = 0.9683): 976.5 ± 0.9 m/s
speed of sound (373.12 K, 149930 kPa, x2 = 0.9376): 1069 ± 1 m/s
speed of sound (373.12 K, 150000 kPa, x2 = 0.9683): 1057.9 ± 1 m/s
speed of sound (373.12 K, 174970 kPa, x2 = 0.9376): 1141.6 ± 1 m/s
speed of sound (373.12 K, 175220 kPa, x2 = 0.9683): 1131.5 ± 1 m/s
speed of sound (373.12 K, 200010 kPa, x2 = 0.9683): 1196.4 ± 1 m/s
speed of sound (373.12 K, 200030 kPa, x2 = 0.9376): 1208.7 ± 1.1 m/s
speed of sound (373.13 K, 50050 kPa, x2 = 0.9907): 607.3 ± 0.8 m/s
speed of sound (373.13 K, 50070 kPa, x2 = 0.9907): 607.5 ± 0.8 m/s
speed of sound (373.13 K, 76000 kPa, x2 = 0.9907): 763.8 ± 0.9 m/s
speed of sound (373.13 K, 100270 kPa, x2 = 0.9907): 874.4 ± 0.9 m/s
speed of sound (373.13 K, 125410 kPa, x2 = 0.9907): 970.3 ± 0.9 m/s
speed of sound (373.13 K, 150430 kPa, x2 = 0.9907): 1051.5 ± 1 m/s
speed of sound (373.13 K, 174660 kPa, x2 = 0.9907): 1121.2 ± 1 m/s
speed of sound (373.13 K, 200020 kPa, x2 = 0.9907): 1188.3 ± 1 m/s
